The record followed here is US20210070748A1, “INHIBITORS OF BRUTONS TYROSINE KINASE” (Pharmacyclics LLC, priority 2015, published 2021).

What all share (format): biochemical
One assay addresses T1, JAK3 (Homo sapiens, UniProt P52333).
T1 sequence (P52333 1-1124): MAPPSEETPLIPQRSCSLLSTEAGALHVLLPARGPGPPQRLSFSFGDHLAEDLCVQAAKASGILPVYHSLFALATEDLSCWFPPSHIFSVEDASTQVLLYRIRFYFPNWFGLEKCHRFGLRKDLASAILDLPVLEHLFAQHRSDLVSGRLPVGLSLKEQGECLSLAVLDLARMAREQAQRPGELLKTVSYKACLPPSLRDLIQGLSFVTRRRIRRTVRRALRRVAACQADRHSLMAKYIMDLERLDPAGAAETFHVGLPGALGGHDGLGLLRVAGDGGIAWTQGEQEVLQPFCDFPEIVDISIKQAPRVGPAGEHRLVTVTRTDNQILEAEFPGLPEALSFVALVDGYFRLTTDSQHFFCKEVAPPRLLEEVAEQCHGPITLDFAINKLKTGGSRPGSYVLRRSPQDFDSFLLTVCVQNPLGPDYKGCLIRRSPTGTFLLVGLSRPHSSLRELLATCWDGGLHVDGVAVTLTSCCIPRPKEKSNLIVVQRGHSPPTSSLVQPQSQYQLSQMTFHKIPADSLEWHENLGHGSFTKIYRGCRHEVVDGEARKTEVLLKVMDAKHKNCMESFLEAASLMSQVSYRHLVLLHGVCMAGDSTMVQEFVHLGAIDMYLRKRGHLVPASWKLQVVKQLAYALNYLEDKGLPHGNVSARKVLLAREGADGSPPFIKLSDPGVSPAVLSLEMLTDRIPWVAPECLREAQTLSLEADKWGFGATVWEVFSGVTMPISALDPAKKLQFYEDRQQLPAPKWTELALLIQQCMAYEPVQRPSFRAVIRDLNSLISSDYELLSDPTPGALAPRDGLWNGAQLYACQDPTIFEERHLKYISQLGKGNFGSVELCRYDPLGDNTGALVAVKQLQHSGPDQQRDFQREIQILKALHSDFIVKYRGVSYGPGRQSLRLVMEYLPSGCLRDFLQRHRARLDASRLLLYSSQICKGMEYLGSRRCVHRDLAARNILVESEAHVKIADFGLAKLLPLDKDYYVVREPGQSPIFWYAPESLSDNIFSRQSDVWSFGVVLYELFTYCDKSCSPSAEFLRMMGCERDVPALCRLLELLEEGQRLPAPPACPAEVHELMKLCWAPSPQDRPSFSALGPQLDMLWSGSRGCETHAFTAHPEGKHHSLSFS
Briefly: Inhibition of a panel of kinases, in vitro HotSpot kinase assay: JAK3. The conditions noted are these: D-compounds panel data; 1 μM ATP; read-out: IC50 JAK3.

In the next assay the target is T2, ITK (Homo sapiens, UniProt Q08881).
T2 sequence (Q08881 1-620): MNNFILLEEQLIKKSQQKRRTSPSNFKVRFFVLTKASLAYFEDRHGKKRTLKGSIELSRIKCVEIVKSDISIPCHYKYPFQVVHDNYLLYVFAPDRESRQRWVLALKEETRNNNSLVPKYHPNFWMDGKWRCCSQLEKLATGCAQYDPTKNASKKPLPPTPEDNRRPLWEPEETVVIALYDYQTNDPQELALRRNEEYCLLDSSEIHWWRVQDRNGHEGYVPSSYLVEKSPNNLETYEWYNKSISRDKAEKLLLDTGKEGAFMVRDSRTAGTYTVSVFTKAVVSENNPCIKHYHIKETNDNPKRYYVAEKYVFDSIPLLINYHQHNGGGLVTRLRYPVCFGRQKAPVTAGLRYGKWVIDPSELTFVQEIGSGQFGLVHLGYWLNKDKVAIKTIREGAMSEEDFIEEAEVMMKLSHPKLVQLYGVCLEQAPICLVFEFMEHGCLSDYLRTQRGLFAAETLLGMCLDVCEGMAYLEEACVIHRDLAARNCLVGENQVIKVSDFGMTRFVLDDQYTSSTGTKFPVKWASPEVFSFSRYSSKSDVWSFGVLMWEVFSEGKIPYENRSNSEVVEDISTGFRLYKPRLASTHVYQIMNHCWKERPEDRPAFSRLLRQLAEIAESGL
Briefly: Inhibition of a panel of kinases, in vitro HotSpot kinase assay: ITK. The conditions noted are these: D-compounds panel data; 1 μM ATP. How it is done:
(§1) The degree of inhibition of a panel of kinases is determined using the in vitro HotSpot kinase assay (purified enzymes, ^33P-ATP, an appropriate substrate and 1 μM ATP).

Another assay deals with LCK (Homo sapiens, UniProt P06239). Put plainly: Inhibition of a panel of kinases, in vitro HotSpot kinase assay: LCK. The note with it: D-compounds panel data; 1 μM ATP; read-out: IC50 LCK.
Sequence of LCK (P06239 whole entry): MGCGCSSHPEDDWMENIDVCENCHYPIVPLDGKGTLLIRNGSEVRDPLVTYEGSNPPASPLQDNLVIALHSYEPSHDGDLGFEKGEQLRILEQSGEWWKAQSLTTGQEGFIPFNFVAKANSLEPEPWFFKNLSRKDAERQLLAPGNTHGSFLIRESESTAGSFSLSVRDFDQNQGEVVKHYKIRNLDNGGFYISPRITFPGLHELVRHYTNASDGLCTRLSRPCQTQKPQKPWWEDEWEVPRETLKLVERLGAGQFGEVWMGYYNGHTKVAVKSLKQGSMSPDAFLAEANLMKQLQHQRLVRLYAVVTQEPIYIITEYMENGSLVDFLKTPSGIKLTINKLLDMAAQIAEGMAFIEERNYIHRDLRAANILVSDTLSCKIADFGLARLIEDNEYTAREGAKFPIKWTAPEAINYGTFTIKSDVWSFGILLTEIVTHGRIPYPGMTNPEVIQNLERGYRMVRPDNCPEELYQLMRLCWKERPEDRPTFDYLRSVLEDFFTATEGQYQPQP
The target of another assay is EGFR (Homo sapiens, UniProt P00533). Put plainly: Inhibition of a panel of kinases, in vitro HotSpot kinase assay: EGFR. The note with it: D-compounds panel data; 1 μM ATP. The protocol: as §1
Sequence of EGFR (P00533 25-1210): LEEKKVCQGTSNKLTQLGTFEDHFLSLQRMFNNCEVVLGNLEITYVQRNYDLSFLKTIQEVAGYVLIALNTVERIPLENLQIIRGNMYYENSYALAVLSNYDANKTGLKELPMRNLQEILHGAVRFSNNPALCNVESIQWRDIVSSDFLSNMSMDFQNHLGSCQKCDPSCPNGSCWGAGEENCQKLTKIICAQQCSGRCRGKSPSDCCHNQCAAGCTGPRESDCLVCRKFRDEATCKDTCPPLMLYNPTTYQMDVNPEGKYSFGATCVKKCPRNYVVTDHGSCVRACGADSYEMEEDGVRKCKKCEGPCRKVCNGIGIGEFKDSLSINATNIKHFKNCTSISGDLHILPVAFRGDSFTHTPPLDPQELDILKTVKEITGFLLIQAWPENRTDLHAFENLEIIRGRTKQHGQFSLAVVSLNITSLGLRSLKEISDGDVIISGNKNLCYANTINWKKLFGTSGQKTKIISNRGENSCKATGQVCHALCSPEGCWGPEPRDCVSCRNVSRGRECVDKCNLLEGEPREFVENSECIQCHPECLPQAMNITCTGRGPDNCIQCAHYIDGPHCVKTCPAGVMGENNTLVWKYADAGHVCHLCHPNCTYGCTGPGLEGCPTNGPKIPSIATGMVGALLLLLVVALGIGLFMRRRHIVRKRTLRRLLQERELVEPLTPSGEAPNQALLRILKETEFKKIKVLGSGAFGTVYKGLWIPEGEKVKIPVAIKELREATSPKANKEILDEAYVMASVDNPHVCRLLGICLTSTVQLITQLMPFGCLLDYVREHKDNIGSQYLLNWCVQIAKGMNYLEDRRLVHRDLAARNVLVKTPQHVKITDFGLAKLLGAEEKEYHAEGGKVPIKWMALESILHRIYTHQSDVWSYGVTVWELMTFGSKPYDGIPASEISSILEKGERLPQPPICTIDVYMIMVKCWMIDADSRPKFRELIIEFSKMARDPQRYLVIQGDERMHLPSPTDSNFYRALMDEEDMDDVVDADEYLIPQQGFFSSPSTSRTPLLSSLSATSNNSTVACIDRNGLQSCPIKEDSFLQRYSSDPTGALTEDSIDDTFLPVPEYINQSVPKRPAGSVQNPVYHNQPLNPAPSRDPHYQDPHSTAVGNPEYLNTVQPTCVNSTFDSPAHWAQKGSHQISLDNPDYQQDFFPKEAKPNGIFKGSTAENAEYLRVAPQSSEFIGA

Structures are written as SMILES. pIC50: −log10 of the molar value.

Regarding `C[C@@H]1[C@H](NC(=O)c2ccc(C3CC3)cc2F)CCCN1c1cnc(C(N)=O)c(Nc2ccc(N3CCN(C)CC3)c(F)c2)n1` [Example D-82, 5-[(2R,3R)-3-(4-cyclopropyl-2-fluorobenzamido)-2-methylpiperidin-1-yl]-3-{[3-fluoro-4-(4-methylpiperazin-1-yl)phenyl]amino}pyrazine-2-carboxamide], the negative logarithm of the IC50 (pIC50) at JAK3 was 5.00 to 6.00; against ITK it was 6.00 to 7.00; on LCK, 7.00 to 8.00; at EGFR it was 6.00 to 7.00.
As to `CN1CCN(C(=O)c2ccc(Nc3nc(N[C@H]4CC[C@H](NC(=O)N(C)C)CC4)cnc3C(N)=O)cc2)CC1` [Example D-69, 3-{[4-(4-methylpiperazine-1-carbonyl)phenyl]amino}-5-{[(1 r,4r)-4-[(dimethylcarbamoyl)amino]cyclohexyl]amino}pyrazine-2-carboxamide], the pIC50 is 6.00 to 7.00 on JAK3, 5.00 to 6.00 on ITK, 7.00 to 8.00 at LCK and 6.00 to 7.00 against EGFR.
Regarding `C[C@@H]1[C@H](NC(=O)c2ccc(C(F)(F)F)nc2)CCCN1c1cnc(C(N)=O)c(Nc2cnn(C)c2)n1` [Example D-91, 3-[(1-methyl-1H-pyrazol-4-yl)amino]-5-[(2R,3R)-2-methyl-3-[6-(trifluoromethyl)pyridine-3-amido]piperidin-1-yl]pyrazine-2-carboxamide], the negative logarithm of the IC50 (pIC50) was 6.00 to 7.00 at JAK3, 6.00 to 7.00 against ITK, 7.00 to 8.00 at LCK and 6.00 to 7.00 against EGFR.
For `Cn1cc(Nc2nc(N3CC[C@@H](O)[C@H](NC(=O)c4ccc(C5CC5)cc4)C3)cnc2C(N)=O)cn1` (racemic) [Example D-26, (racemic)-trans-5-[3-(4-cyclopropylbenzamido)-4-hydroxypiperidin-1-yl]-3-[(1-methyl-1H-pyrazol-4-yl)amino]pyrazine-2-carboxamide], the negative-log IC50 (pIC50) on JAK3 is less than 5.00; at ITK it was 5.00 to 6.00; at LCK, 5.00 to 6.00; against EGFR, less than 5.00.
With `C[C@@H]1[C@H](NC(=O)c2cnc(C3CC3)nc2)CCCN1c1cnc(C(N)=O)c(Nc2cnn(C)c2)n1` [Example D-86, 5-[(2R,3R)-3-(2-cyclopropylpyrimidine-5-amido)-2-methylpiperidin-1-yl]-3-[(1-methyl-1H-pyrazol-4-yl)amino]pyrazine-2-carboxamide], the pIC50 is 6.00 to 7.00 at JAK3, 7.00 to 8.00 against ITK, 7.00 to 8.00 at LCK and 5.00 to 6.00 on EGFR.
With `C[C@@H]1[C@H](N2Cc3cc(C4CC4)ccc3C2=O)CCCN1c1cnc(C(N)=O)c(Nc2cnn(C)c2)n1` [Example D-36, 5-[(2R,3R)-3-(5-cyclopropyl-1-oxo-2,3-dihydro-1H-isoindol-2-yl)-2-methylpiperidin-1-yl]-3-[(1-methyl-1H-pyrazol-4-yl)amino]pyrazine-2-carboxamide], the pIC50 on JAK3, on ITK, at LCK and against EGFR was 6.00 to 7.00 in each case.
For the molecule `C[C@@H]1[C@H](NC(=O)c2ccc(C(C)(C)O)nc2)CCCN1c1cnc(C(N)=O)c(Nc2cnn(C)c2)n1` [Example D-40, 5-[(2R,3R)-3-[6-(2-hydroxypropan-2-yl)pyridine-3-amido]-2-methylpiperidin-1-yl]-3-[(1-methyl-1H-pyrazol-4-yl)amino]pyrazine-2-carboxamide], the negative-log IC50 (pIC50) at JAK3 was 6.00 to 7.00; against ITK, 6.00 to 7.00; at LCK, 7.00 to 8.00; on EGFR it was 6.00 to 7.00.
